Results as given in ChEMBL document CHEMBL1201862, “PubChem BioAssay data set” (2004).
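Results reflect a 48-hour exposure of cells in 96-well plates to compound at five concentrations. Here, GI50 denotes the concentration required for 50% inhibition of growth.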 Active and inactive are the calls of the source. No stated cut-off is given here; in the data, active = GI50 up to about 1.1 µM and inactive = higher.

How the values were obtained:
Assay in all cases: NCI tumour cell line growth inhibition, 48 h
NCI-H23 = test system: NCI-H23
MDA-MB-231 = test system: MDA-MB-231
SK-MEL-28 = test system: SK-MEL-28
BT-549 = test system: BT-549
M14 = test system: M14
SK-MEL-5 = test system: SK-MEL-5
SR = test system: SR
HT-29 = test system: HT-29
MDA-N = test system: MDA-N
OVCAR-4 = test system: OVCAR-4
NCI-H226 = test system: NCI-H226
U-251 = test system: U-251
SF-268 = test system: SF-268
SK-MEL-2 = test system: SK-MEL-2
Hs-578T = test system: Hs-578T
OVCAR-5 = test system: OVCAR-5
NCI/ADR-RES = test system: NCI/ADR-RES
T47D = test system: T47D
SF-539 = test system: SF-539
UACC-62 = test system: UACC-62

| Structure (SMILES) | GI50 (NCI-H23) | GI50 (MDA-MB-231) | GI50 (SK-MEL-28) | GI50 (BT-549) | GI50 (M14) | GI50 (SK-MEL-5) | GI50 (SR) | GI50 (HT-29) | GI50 (MDA-N) | GI50 (OVCAR-4) | GI50 (NCI-H226) | GI50 (U-251) | GI50 (SF-268) | GI50 (SK-MEL-2) | GI50 (Hs-578T) | GI50 (OVCAR-5) | GI50 (NCI/ADR-RES) | GI50 (T47D) | GI50 (SF-539) | GI50 (UACC-62) |
| --- | --- | --- | --- | --- | --- | --- | --- | --- | --- | --- | --- | --- | --- | --- | --- | --- | --- | --- | --- | --- |
| CC#Cc1cc2c(cc1O)CC[C@@H]1[C@@H]2CC[C@]2(C)[C@@H](O)CC[C@@H]12 | 1.54 µM (inactive) | 8.18 µM (inactive) | 7.36 µM (inactive) | 11.9 µM (inactive) | 0.521 µM (active) | 0.484 µM (active) | 0.288 µM (active) | 13.8 µM (inactive) | 0.178 µM (active) | 12.8 µM (inactive) | 2.8 µM (inactive) | 0.748 µM (active) | 3.59 µM (inactive) | 1.06 µM (active) | 1.11 µM (active) | 17.9 µM (inactive) | 0.885 µM (active) | 3.15 µM (inactive) |  |  |
| Cc1c(-c2ccccc2)c(C#N)c2nnc(C(N)=O)c(N)n12 | > 100 µM (inactive) | > 100 µM (inactive) | > 100 µM (inactive) | > 100 µM (inactive) | > 100 µM (inactive) | > 100 µM (inactive) | > 100 µM (inactive) | > 100 µM (inactive) | > 100 µM (inactive) | > 100 µM (inactive) |  | > 100 µM (inactive) | > 100 µM (inactive) | > 100 µM (inactive) | > 100 µM (inactive) | > 100 µM (inactive) | > 100 µM (inactive) | > 100 µM (inactive) | > 100 µM (inactive) | > 100 µM (inactive) |
| CCn1nc2c3c(ncn3C(C)(C)O2)c1=O | > 100 µM (inactive) | > 100 µM (inactive) | > 100 µM (inactive) | > 100 µM (inactive) | > 100 µM (inactive) | > 100 µM (inactive) | > 100 µM (inactive) | > 100 µM (inactive) | > 100 µM (inactive) | > 100 µM (inactive) | > 100 µM (inactive) | > 100 µM (inactive) | > 100 µM (inactive) | > 100 µM (inactive) | > 100 µM (inactive) | > 100 µM (inactive) | > 100 µM (inactive) | > 100 µM (inactive) |  | > 100 µM (inactive) |
| CSc1nc(NC(C)C)c2c(n1)Sc1nc3ccccc3n1C2O (centres undefined) | 4.79 µM (inactive) | 9.14 µM (inactive) | 3.34 µM (inactive) | 6.79 µM (inactive) | 5.96 µM (inactive) |  | 2.84 µM (inactive) | 3.09 µM (inactive) | 2.75 µM (inactive) | 4.98 µM (inactive) |  | 3.11 µM (inactive) | 4.43 µM (inactive) | 7.73 µM (inactive) | 2.79 µM (inactive) |  | 2.56 µM (inactive) | 4.2 µM (inactive) |  |  |
| CCC(CC)(CO)CNc1cc(Cl)nc(N)n1 | > 100 µM (inactive) | > 100 µM (inactive) | > 100 µM (inactive) | > 100 µM (inactive) |  | 60.7 µM (inactive) | > 100 µM (inactive) | > 100 µM (inactive) | 89.5 µM (inactive) | 87.9 µM (inactive) | 77.1 µM (inactive) | > 100 µM (inactive) | 55.6 µM (inactive) | > 100 µM (inactive) | > 100 µM (inactive) | > 100 µM (inactive) | > 100 µM (inactive) | 45.6 µM (inactive) | > 100 µM (inactive) | > 100 µM (inactive) |
| CC(=O)N1C(C(=O)NN2CCOCC2)CSC1c1ccccc1 (centres undefined) | > 100 µM (inactive) | > 100 µM (inactive) |  | > 100 µM (inactive) | > 100 µM (inactive) | > 100 µM (inactive) | > 100 µM (inactive) | > 100 µM (inactive) | > 100 µM (inactive) | > 100 µM (inactive) | > 100 µM (inactive) | > 100 µM (inactive) | > 100 µM (inactive) | > 100 µM (inactive) | > 100 µM (inactive) | > 100 µM (inactive) | > 100 µM (inactive) | > 100 µM (inactive) | > 100 µM (inactive) | > 100 µM (inactive) |
| COc1cc(CNC(=O)CCCCCCCCCCSC#N)ccc1O | 20.6 µM (inactive) | 25.7 µM (inactive) | 7.66 µM (inactive) | 22.9 µM (inactive) | 7.38 µM (inactive) | 6.22 µM (inactive) | 8.47 µM (inactive) | 31.9 µM (inactive) | 5.87 µM (inactive) | 25 µM (inactive) | 18.1 µM (inactive) | 16.8 µM (inactive) |  | 14.1 µM (inactive) | 14.2 µM (inactive) | 30.3 µM (inactive) | 17.1 µM (inactive) | 8.26 µM (inactive) | 18 µM (inactive) | 5.41 µM (inactive) |
| O=C1/C(=C/c2ccc(Br)s2)NC(=S)N1CN1CCCCC1 | 32.4 µM (inactive) | 62.4 µM (inactive) | 41.1 µM (inactive) | 25.9 µM (inactive) |  | 0.317 µM (active) | 15.8 µM (inactive) | 33.2 µM (inactive) | 33.9 µM (inactive) | 36.8 µM (inactive) | 32 µM (inactive) | 28.8 µM (inactive) | 39.4 µM (inactive) | 0.678 µM (active) | 51.4 µM (inactive) | 76.6 µM (inactive) | 28.8 µM (inactive) | 30.5 µM (inactive) |  | 26.6 µM (inactive) |
| C/C=C1/CC(C)C(C)(O)C(=O)OCC2C(O)CN3CCC(OC1=O)C23 (centres undefined) | > 100 µM (inactive) | > 100 µM (inactive) |  | > 100 µM (inactive) | > 100 µM (inactive) | > 100 µM (inactive) | > 100 µM (inactive) | > 100 µM (inactive) | > 100 µM (inactive) | > 100 µM (inactive) | > 100 µM (inactive) | > 100 µM (inactive) | > 100 µM (inactive) | > 100 µM (inactive) | > 100 µM (inactive) | > 100 µM (inactive) | > 100 µM (inactive) | > 100 µM (inactive) | > 100 µM (inactive) | > 100 µM (inactive) |
| Nc1nc(NCC2(CO)CCC2)cc(=O)[nH]1 | > 100 µM (inactive) | > 100 µM (inactive) | > 100 µM (inactive) | > 100 µM (inactive) | > 100 µM (inactive) | > 100 µM (inactive) | > 100 µM (inactive) | > 100 µM (inactive) | > 100 µM (inactive) | > 100 µM (inactive) | > 100 µM (inactive) | > 100 µM (inactive) | > 100 µM (inactive) | > 100 µM (inactive) | > 100 µM (inactive) | > 100 µM (inactive) | > 100 µM (inactive) | > 100 µM (inactive) |  | > 100 µM (inactive) |
| Cn1c2ccccc2c(=NNc2cccc(C(=O)O)c2)c2ccccc21 | 9.95 µM (inactive) | 11 µM (inactive) | 19.2 µM (inactive) | 7.59 µM (inactive) | 19.6 µM (inactive) | 14.7 µM (inactive) |  | 3.1 µM (inactive) | 16.1 µM (inactive) | 12.4 µM (inactive) | 12.1 µM (inactive) | 4.69 µM (inactive) | 10.9 µM (inactive) | 16.8 µM (inactive) | 17.8 µM (inactive) | 14.4 µM (inactive) | 24.3 µM (inactive) | 5.79 µM (inactive) | 19.2 µM (inactive) | 16.9 µM (inactive) |
| NC(=O)NCCCC(NC(=O)OCCCCCCn1ccc(=O)[nH]c1=O)C(=O)O (centres undefined) | > 100 µM (inactive) | > 100 µM (inactive) | > 100 µM (inactive) | > 100 µM (inactive) | > 100 µM (inactive) |  | 9.42 µM (inactive) | > 100 µM (inactive) | > 100 µM (inactive) | > 100 µM (inactive) | > 100 µM (inactive) | > 100 µM (inactive) | > 100 µM (inactive) | > 100 µM (inactive) | > 100 µM (inactive) | > 100 µM (inactive) | > 100 µM (inactive) | > 100 µM (inactive) | > 100 µM (inactive) | > 100 µM (inactive) |
| CCOC(=O)c1cc2cc3c4c(c2oc1=O)CCCN4CCC3 | 30.1 µM (inactive) | 22.3 µM (inactive) | 43.4 µM (inactive) | 31.4 µM (inactive) | 32.3 µM (inactive) | 13.4 µM (inactive) | 22.8 µM (inactive) | 31.8 µM (inactive) | 37.2 µM (inactive) | 34 µM (inactive) | 14.7 µM (inactive) | 28.8 µM (inactive) | 19.2 µM (inactive) | 24.7 µM (inactive) | 25 µM (inactive) | > 100 µM (inactive) | 22.2 µM (inactive) | 15.2 µM (inactive) | 23.5 µM (inactive) |  |
| Nc1n[n+](CC(=O)c2ccccc2)c2sc(-c3ccccc3)nn12 | > 100 µM (inactive) | > 100 µM (inactive) | > 100 µM (inactive) | > 100 µM (inactive) | 61.2 µM (inactive) | 48.6 µM (inactive) |  | 55 µM (inactive) | 84.7 µM (inactive) | > 100 µM (inactive) | > 100 µM (inactive) | > 100 µM (inactive) | 18.8 µM (inactive) | > 100 µM (inactive) | > 100 µM (inactive) | > 100 µM (inactive) | > 100 µM (inactive) | > 100 µM (inactive) | 74.8 µM (inactive) | 13.9 µM (inactive) |
| CC(=O)O[C@H](C[C@@H](C)[C@H]1C(=O)[C@H](O)[C@@]2(C)C3CC[C@H]4C(C)(C)[C@@H](OC5OCC(O)C(O)C5O)CC[C@@]45C[C@@]35CC[C@]12C)[C@@H]1OC1(C)C (some centres undefined) | 23.9 µM (inactive) | 16.1 µM (inactive) | 20.3 µM (inactive) | 21.9 µM (inactive) | 31.1 µM (inactive) | 16.1 µM (inactive) |  | 29.4 µM (inactive) | 19.3 µM (inactive) | 22.4 µM (inactive) | 17.5 µM (inactive) | 16.3 µM (inactive) | 20.7 µM (inactive) | 16 µM (inactive) | 38 µM (inactive) | 16.9 µM (inactive) | 47.3 µM (inactive) | 17.4 µM (inactive) | 16.3 µM (inactive) | 14.1 µM (inactive) |
